# Read-outs that look alike come from different tables or passages of the source. Marks after values point to notes of the source that are not given here.
# Experiments:
# mice [1] = conditions: cited from earlier work
# mice [2] = assay: 6 Hz test; format: in vivo; conditions: for Number of animals active or toxic over the number tested: 6 Hz
# Experimental: The 6 Hz model test was carried out according to the protocol originally described by Brown et al. [54] and more recently by Barton et al. [55] and Kamiński et al. [47] and is a model of pharmacoresistant epilepsy [56].
# mice [3] = assay: Rotarod test (neurotoxicity); format: in vivo; conditions: for Number of animals active or toxic over the number tested: Rotarod; for Rotarod: neurotoxic at: mice, ip;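 for all read-outs here: in vivo neurotoxicity screen run within the NIH Epilepsy Therapy Screening Program (ETSP, formerly Anticonvulsant Screening Program)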
# Experimental: (§1) The assays were carried out within the Epilepsy Therapy Screening Program (ETSP, previously known as the Anticonvulsant Screening Program, ASP), Epilepsy Branch, National Institute of Neurological and Communicative Disorders and Stroke, National Institutes of Health in Rockville, MD, USA [23].
# (§2) The obtained compounds were screened for antiseizure activity and neurotoxicity in vivo within the Epilepsy Therapy Screening Program (ETSP, previously known as the Anticonvulsant Screening Program, ASP), Epilepsy Branch, National Institute of Neurological and Communicative Disorders and Stroke, National Institutes of Health in Rockville, MD, USA [23].
# mice [4] = conditions: for Number of animals active or toxic over the number tested: MES; for MES: active at: mice, ip
# Experimental: as §1, §2
# mice [5] = assay: Formalin test (first screening); format: in vivo; conditions: ip
# Experimental: Formalin test. The first screening in doses 15 and 30 mg/kg was performed at the Jagiellonian University-Medical College. […] After 30 min, animals were injected with 20 μL of a 0.5% formalin solution into the plantar surface of the hind paw. The total time spent by animal licking or biting the injected paw was assessed for the following 40 min.
# mice [6] = assay: Tail immersion test (local anesthetic activity); format: in vivo
# Experimental: The tail immersion test in mice. […] The method was performed by subcutaneous (sc) injection of the tested substance dissolved in saline, at a concentration range 0.06–2%, in a constant volume of 0.2 mL about 1 cm from the root of the mouse tail. Fifteen minutes later, the 3-cm distal part of the tail was immersed into temperature-controlled water (50 ± 0.5 °C). The reaction time (latency until the tail is pulled away) was measured by the means of a chronometer. In this assay the cut-off was 20 s [29].
# guinea pigs [7] = assay: Corneal anesthesia; format: in vivo; conditions: 5 min
# Experimental: A. Corneal anesthesia. […] The corneal reflex was examined by irritation of right eye conjunctiva (studied eye) and a left eye conjunctiva (control eye) by horsehair. The strength of local anesthetic activity was determined from the moment of solution instillation to the moment of reflex return. The presence or lack of corneal reflex were assessed. The eye conjunctiva irritation was done 6 times (every 5 s) with the interval of 5 min during the first 30 min [31].
# guinea pigs [8] = assay: Infiltration anesthesia (intradermal wheal test); format: in vivo
# Experimental: A painful reaction to a prick of the skin at the centre of the wheal three times and every 5 s with 5 min intervals during the first 30 min of observation was tested. The experiment was continued to achieve a return of a reaction to the prick. The control wheal was done by an intradermal injection of 0.1 mL of 0.9% NaCl [25]. Local anesthesia was determined by calculating the ratio of the number of positive responses (no flinch) to the number of negative responses (flinch).
# mice [9] = conditions: ip, Table 3; cited from earlier work
# mice [10] = assay: Subcutaneous pentylenetetrazole seizure test (ScPTZ, SCMET); format: in vivo; conditions: mice, ip, 0.5 h
# Experimental: as §1
# rats = conditions: ip; cited from earlier work
# mice [11] = assay: Antiseizure activity and preliminary toxicity screening; format: in vivo; conditions: ip
compound,measurement,setting,value
Cc1cccc(C)c1NC(=O)C1CCCCN1C (stereo not drawn) [Mepivacaine],Prolongation of the time reaction,mice [1]; 1.0%,94.63%
same,Reaction time to painful stimulus,mice [1]; 1.0%,14.13 ± 2.67 s
same,Prolongation of the time reaction,mice [1]; 2.0%,116.67%
same,Reaction time to painful stimulus,mice [1]; 2.0%,15.73 ± 2.09 s
"Cc1cccc(Cl)c1OCC(=O)N[C@H]1CC[C@H](O)CC1 [Compound 18, Trans-2-(2-chloro-6-methylphenoxy)-N-(4-hydroxycyclohexyl)acetamide]",Number of animals active or toxic over the number tested,"mice [2]; 30 mg/kg, 0.5 h",0/4
same,Number of animals active or toxic over the number tested,"mice [2]; 30 mg/kg, 2.0 h",0/4
same,Number of animals active or toxic over the number tested,"mice [2]; 100 mg/kg, 0.5 h",4/4
same,Number of animals active or toxic over the number tested,"mice [2]; 100 mg/kg, 2.0 h",0/4
same,Number of animals active or toxic over the number tested,"mice [2]; 300 mg/kg, 0.5 h",4/4
same,Number of animals active or toxic over the number tested,"mice [2]; 300 mg/kg, 2.0 h",4/4
same,8 Hz: active at,"mice [2]; mice, ip, 0.5 h",100 mg/kg
same,Number of animals active or toxic over the number tested,"mice [3]; 30 mg/kg, 0.5 h",0/8
same,Number of animals active or toxic over the number tested,"mice [3]; 30 mg/kg, 2.0 h",0/8
same,Number of animals active or toxic over the number tested,"mice [3]; 100 mg/kg, 0.5 h",2/8
same,Number of animals active or toxic over the number tested,"mice [3]; 100 mg/kg, 2.0 h",0/8
same,Number of animals active or toxic over the number tested,"mice [3]; 300 mg/kg, 0.5 h",8/8 (sedated)
same,Number of animals active or toxic over the number tested,"mice [3]; 300 mg/kg, 2.0 h",0/8 (unable to grasp rotarod)
same,Rotarod: neurotoxic at,mice [3]; 0.5 h,100 mg/kg
same,Number of animals active or toxic over the number tested,"mice [4]; 30 mg/kg, 0.5 h",3/4
same,Number of animals active or toxic over the number tested,"mice [4]; 30 mg/kg, 2.0 h",0/4
same,Number of animals active or toxic over the number tested,"mice [4]; 100 mg/kg, 0.5 h",4/4
same,Number of animals active or toxic over the number tested,"mice [4]; 100 mg/kg, 2.0 h",0/4
same,Number of animals active or toxic over the number tested,"mice [4]; 300 mg/kg, 0.5 h",4/4
same,Number of animals active or toxic over the number tested,"mice [4]; 300 mg/kg, 2.0 h",4/4
same,MES: active at,mice [4]; 0.5 h,30 mg/kg
"CC[C@@H](CO)NCCOc1c(C)cccc1Cl.Cl [Compound 6a, S-( +)-2-((2-(2-chloro-6-methylphenoxy)ethyl)amino)butan-1-ol hydrochloride]",Rotarod: neurotoxic at,mice [3]; 0.5 h,MES: active at 100 Rotarod: neurotoxic at 100 mg/kg
same,% of effect (I phase),mice [5]; 30.0 mg/kg,33.4%
same,% of effect (II phase),mice [5]; 30.0 mg/kg,10.2%
same,Time of licking paw ± SEM (I phase),mice [5]; 30.0 mg/kg,59.7 ± 6.4 s
same,formalin test (I phase): active at,mice [5],30 mg/kg
same,Prolongation of the time reaction,mice [6]; 0.031%,60.0%
same,Reaction time to painful stimulus,mice [6]; 0.031%,5.6 ± 0.9 s
same,Prolongation of the time reaction,mice [6]; 0.094%,82.9%
same,Reaction time to painful stimulus,mice [6]; 0.094%,6.4 ± 0.8 s
same,Prolongation of the time reaction,mice [6]; 0.125%,348.6%
same,Reaction time to painful stimulus,mice [6]; 0.125%,15.7 ± 1.8 s
same,Prolongation of the time reaction,mice [6]; 0.5%,457.1%
same,Reaction time to painful stimulus,mice [6]; 0.5%,19.5 ± 0.5 s
same,Prolongation of the time reaction,mice [6]; 2.0%,437.1%
same,Reaction time to painful stimulus,mice [6]; 2.0%,18.8 ± 1.9 s
same,Prolongation of the time reaction,mice [6]; […],5.7%
same,Reaction time to painful stimulus,mice [6]; […],3.7 ± 0.6 s
same,Inhibition of pain reaction,guinea pigs [7]; 0.5%,75*** %
same,Inhibition of pain reaction,guinea pigs [7]; […],63.89*** %
same,Inhibition of pain reaction,"guinea pigs [8]; 0.5%, 30 min",93.75*** %
same,Inhibition of pain reaction,"guinea pigs [8]; 0.5%, 60 min",43.75* %
same,Inhibition of pain reaction,"guinea pigs [8]; 0.5%, 120 min",25%
same,Inhibition of pain reaction,"guinea pigs [8]; […], 5 min",94.44*** %
same,Inhibition of pain reaction,"guinea pigs [8]; […], 60 min",38.89* %
same,MES: active at,mice [4]; 0.5 h,MES: active at 100 Rotarod: neurotoxic at 100 mg/kg
"CC(C)NCC(O)COc1cccc2ccccc12 (stereo not drawn) [Propranolol, propranolol]",MES ED50,mice [9],MES: ED50 = 15–20 mg/kg
"CCC(CO)NC(=O)COc1c(C)cccc1Cl (stereo not drawn) [Compound 12, R,S-2-(2-chloro-6-methylphenoxy)-N-(1-hydroxybutan-2-yl)acetamide]",Rotarod: neurotoxic at,mice [3]; 0.5 h,300 mg/kg
same,ScPTZ: active at,mice [10],100 mg/kg
same,MES: active at,mice [4]; 0.5 h,300 mg/kg
"Cc1cccc(Cl)c1OCC(=O)NC(C)CO (stereo not drawn) [Compound 11, R,S-2-(2-chloro-6-methylphenoxy)-N-(1-hydroxypropan-2-yl)acetamide]",Rotarod: neurotoxic at,mice [3]; 0.5 h,100 mg/kg
same,MES: active at,mice [4]; 0.5 h,300 mg/kg
NCC1(CC(=O)O)CCCCC1 [Gabapentin],SNL ED50,rats,32 mg/kg
"Cc1cccc(Cl)c1OCC(=O)N[C@H](C)C(=O)O [Compound 14, R-(+)-(2-(2-chloro-6-methylphenoxy)acetyl)alanine]",Antiseizure activity and preliminary toxicity screening: result,mice [11],No activity
"Cc1cccc(Cl)c1OCCNCC(C)O (stereo not drawn) [Compound 1, R,S-1-((2-(2-chloro-6-methylphenoxy)ethyl)amino)propan-2-ol]",Rotarod: neurotoxic at,mice [3]; 0.5 h,100 mg/kg
same,MES: active at,mice [4]; 0.5 h,30 mg/kg
O=C1NC(=O)C(c2ccccc2)(c2ccccc2)N1 [Phenytoin],Prolongation of the time reaction,mice [1]; 1.0%,18%
same,Reaction time to painful stimulus,mice [1]; 1.0%,5.72 ± 0.63 s
same,Prolongation of the time reaction,mice [1]; 2.0%,84%
same,Reaction time to painful stimulus,mice [1]; 2.0%,8.90 ± 0.80 s
"Cc1cccc(Cl)c1OCC(=O)NC(C)C(=O)O (stereo not drawn) [Compound 13, R,S-(2-(2-chloro-6-methylphenoxy)acetyl)alanine]",Antiseizure activity and preliminary toxicity screening: result,mice [11],No activity
"Cc1cccc(Cl)c1OCC(=O)N[C@@H](C)C(=O)O [Compound 15, S-(-)-(2-(2-chloro-6-methylphenoxy)acetyl)alanine]",Antiseizure activity and preliminary toxicity screening: result,mice [11],No activity
"Cc1cccc(Cl)c1OCC(=O)NCC(C)O (stereo not drawn) [Compound 10, R,S-2-(2-chloro-6-methylphenoxy)-N-(2-hydroxypropyl)acetamide]",Rotarod: neurotoxic at,mice [3]; 0.5 h,300 mg/kg
same,ScPTZ: active at,mice [10],300 mg/kg
"CCC(NC(=O)COc1c(C)cccc1Cl)C(=O)O (stereo not drawn) [Compound 16, R,S-2-(2-(2-chloro-6-methylphenoxy)acetamido)butanoic acid]",Antiseizure activity and preliminary toxicity screening: result,mice [11],No activity
"Cc1cccc(Cl)c1OCCNC(C)CO (stereo not drawn) [Compound 2, R,S-2-((2-(2-chloro-6-methylphenoxy)ethyl)amino)propan-1-ol]",Rotarod: neurotoxic at,mice [3]; 0.5 h,MES: active at 100 Rotarod: neurotoxic at 100 mg/kg
same,MES: active at,mice [4]; 0.5 h,MES: active at 100 Rotarod: neurotoxic at 100 mg/kg
"Cc1cccc(Cl)c1OCCNCC(O)c1ccccc1 (stereo not drawn) [Compound 9, R,S-2-((2-(2-chloro-6-methylphenoxy)ethyl)amino)-1-phenylethan-1-oll]",Rotarod: neurotoxic at,mice [3]; 0.5 h,100 mg/kg
same,MES: active at,mice [4]; 0.5 h,30 mg/kg
"Cc1cccc(Cl)c1OCCN[C@@H]1CCCC[C@H]1O (relative stereo) [Compound 8, R,S-trans-2-((2-(2-chloro-6-methylphenoxy)ethyl)amino)cyclohexan-1-ol]",Rotarod: neurotoxic at,mice [3]; 0.5 h,100 mg/kg
same,MES: active at,mice [4]; 0.5 h,30 mg/kg
NC(=O)N1c2ccccc2CC(=O)c2ccccc21 [Oxcarbazepine],SNL MED,rats,10 mg/kg
"CCC(O)CNCCOc1c(C)cccc1Cl (stereo not drawn) [Compound 3, R,S-1-((2-(2-chloro-6-methylphenoxy)ethyl)amino)butan-2-ol]",Rotarod: neurotoxic at,mice [3]; 0.5 h,100 mg/kg
same,MES: active at,mice [4]; 0.5 h,30 mg/kg
